Test results reported in patent US9725462B2, “Pyridopyrimidine derivatives as protein kinase inhibitors” (Merck Patent GmbH, priority 2012, dated 2017).

Target: T1, SYK (Homo sapiens, UniProt P43405)
T1 construct: 2.5 nM SYK, 400 nM Biotin-Aha-Aha-KEDPDYEWPSAKK
Assay: SYK Flash Plate Assay (enzyme assay)
Type: biochemical
Settings: Syk inhibition
Description: The following abbreviations refer respectively to the definitions below: • aq (aqueous), h (hour), g (gram), L (liter), mg (milligram), MHz (Megahertz), min. (minute), mm (millimeter), mmol (millimole), mM (millimolar), m.p. (melting point), eq (equivalent), mL (milliliter), L (microliter), ACN (acetonitrile), AcOH (acetic acid), CDCl3 (deuterated chloroform), CD3OD (deuterated methanol), CH3CN (acetonitrile), c-hex (cyclohexane), DCC (dicyclohexyl carbodiimide), DCM (dichloromethane), DIC (diisopropyl carbodiimide), DIEA (diisopropylethyl-amine), DMF (dimethylformamide), DMSO (dimethylsulfoxide), DMSO-d6 (deuterated dimethylsulfoxide), EDC (1-(3-dimethyl-amino-propyl)-3-ethylcarbodiimide), ESI (Electro-spray ionization), EtOAc (ethyl acetate), Et2O (diethyl ether), EtOH (ethanol), HATU (dimethylamino-([1,2,3]triazolo[4,5-b]pyridin-3-yloxy)-methylene]-dimethyl-ammonium hexafluorophosphate), HPLC (High Performance Liquid Chromatography), i-PrOH (2-propanol), K2CO3 (potassium carbonate), LC (Liquid Chromatography), MeOH (methanol), MgSO4 (magnesium sulfate), MS (mass spectrometry), MTBE (Methyl tert-butyl ether), NaHCO3 (sodium bicarbonate), NaBH4 (sodium borohydride), NMM (N-methyl morpholine), NMR (Nuclear Magnetic Resonance), PyBOP (benzotriazole-1-yl-oxy-tris-pyrrolidino-phosphonium hexafluorophosphate), RT (room temperature), Rt (retention time), SPE (solid phase extraction), TBTU (2-(1-H-benzotriazole-1-yl)-1,1,3,3-tetramethyluromium tetrafluoro borate), TEA (triethylamine), TFA (trifluoroacetic acid), THF (tetrahydrofuran), TLC (Thin Layer Chromatography), UV (Ultraviolet). Description of the In Vitro Assays SYK Flash Plate Assay
The kinase assay is performed either as 384-well Flashplate assay (for e.g. Topcount measurement) or as 384-well Image-Flashplate assay (for LEADseeker measurement).
2.5 nM SYK, 400 nM Biotin-Aha-Aha-KEDPDYEWPSAKK
and 10 μM ATP (spiked with 0.3 μCi 33P-ATP/well) are incubated in a total volume of 50 μl (60 mM Hepes, 10 mM MgCl2, 1.2 mM Dithiothreitol, 0.02% Brij35, 0.1% BSA, pH 7.5) with or without test compound for 1 hours at 30° C. The reaction is stopped with 25 μl 200 mM EDTA. After 30 Min at 30° C. the liquid is removed and each well washed thrice with 100 μl 0.9% sodium chloride solution. Non-specific reaction is determined in presence of 0.1 μM Staurosporine. Radioactivity is measured with Topcount (when using Flashplates) or with LEADseeker (when using Image-Flashplates) respectively. Results (e.g. IC50-values) are calculated with program tools provided by the IT-department (e.g. Symyx Assay Explorer, Genedata Screener). In Vivo Assays CIA

## Cn1cc(-c2cnc(N)c3cnc(N4CCC(CO)CC4)nc23)cn1 [Compound A5, {1-[5-Amino-8-(1-methyl-1H-pyrazol-4-yl)-pyrido[4,3-d]pyrimidin-2-yl]-piperidin-4-yl}-methanol]
  IC50: 1000 to 50000 nM

## COC[C@H](N)CNc1ncc2cncc(-c3cccc(C)c3)c2n1 [Compound A30, (R)-3-Methoxy-N1-(8-m-tolyl-pyrido[4,3-d]pyrimidin-2-yl)-propane-1,2-diamine]
  IC50: 1000 to 50000 nM

## Cn1cc(-c2cnc(N)c3cnc(NCCN)nc23)cn1 [Compound A6, N2-(2-Amino-ethyl)-8-(1-methyl-1H-pyrazol-4-yl)-pyrido[4,3-d]-pyrimidine-2,5-diamine]
  IC50: 1000 to 50000 nM

## N#Cc1cnc(N)c2cnc(N[C@H]3CCCC[C@H]3N)nc12 (relative stereo) [Compound A9, 5-Amino-2-(cis2-amino-cyclohexylamino)-pyrido[4,3-d]pyrimidine-8-carbonitrile]
  IC50: 1000 to 50000 nM

## N#Cc1ccc2c(-c3cncc4cnc(N[C@@H]5CCCC[C@@H]5N)nc34)c[nH]c2c1 [Compound A45, 3-[2-((1R,2S)-2-Amino-cyclohexylamino)-pyrido[4,3-d]pyrimidin-8-yl]-1H-indole-6-carbonitrile]
  IC50: < 100 nM

## N[C@H]1CCCC[C@H]1Nc1ncc2c(C(F)F)ncc(-c3c[nH]c4cc(C(F)(F)F)ccc34)c2n1 [Compound A82]
  IC50: < 100 nM

## N[C@H]1CCCC[C@H]1Nc1ncc2cncc(-c3c[nH]c4cnccc34)c2n1 [Compound A76]
  IC50: < 100 nM

## N#Cc1ccc2c(-c3cncc4cnc(N[C@@H]5CCOC[C@@H]5N)nc34)c[nH]c2c1 [Compound A69, 3[2-((3R,4R)-3-Amino-tetrahydro-pyran-4-ylamino)-pyrido[4,3-d]pyrimidin-8-yl]-1H-indole-6-carbonitrile]
  IC50: 100 to 1000 nM

## COC[C@H](N)CNc1ncc2c(N)ncc(-c3cnn(C)c3)c2n1 [Compound A20, N2-((R)-2-Amino-3-methoxy-propyl)-8-(1-methyl-1H-pyrazol-4-yl)-pyrido[4,3-d]pyrimidine-2,5-diamine]
  IC50: 100 to 1000 nM

## N[C@H]1CCCC[C@H]1Nc1ncc2cncc(-c3ccc4[nH]c(=O)[nH]c4c3)c2n1 [Compound A37, 5-[2-((1R,2S)-2-Amino-cyclohexylamino)-pyrido[4,3-d]pyrimidin-8-yl]-1,3-dihydro-benzimidazol-2-one]
  IC50: 1000 to 50000 nM

## FC1(CNc2ncc3cncc(-c4c[nH]c5cc(C(F)(F)F)ccc45)c3n2)CCCNC1 (single isomer, unassigned) [Compound A79, (3-fluoro-piperidin-3-ylmethyl)-[8-(6-trifluoromethyl-1H-indol-3-yl)-pyrido[4,3-d]pyrimidin-2-yl]-amine]
  IC50: 1000 to 50000 nM

## N[C@@H]1CCCC[C@@H]1Nc1ncc2cncc(-c3c[nH]c4ccccc34)c2n1 (stereo in doubt) [Compound A27, (1S,2R)-N-[8-(1H-Indol-3-yl)-pyrido[4,3-d]pyrimidin-2-yl]-cyclohexane-1,2-diamine]
  IC50: < 100 nM

## NC1CCCCC1Nc1ncc2cncc(-c3c[nH]c4c(F)cccc34)c2n1 (stereo not drawn) [Compound A63, cis-N2-[8-(7-Fluoro-1H-indol-3-yl)pyrido[4,3-d]pyrimidin-2-yl]cyclohexane-1,2-diamine]
  IC50: < 100 nM

## N[C@H]1CCCC[C@H]1Nc1ncc2cncc(-c3ccc4[nH]cnc4c3)c2n1 [Compound A36]
  IC50: 1000 to 50000 nM

## N[C@@H]1CCCC[C@@H]1Nc1ncc2cncc(-c3cc4n(n3)CCCC4)c2n1 (stereo in doubt) [Compound A33, (1S,2R)-N-[8-(4,5,6,7-Tetrahydro-pyrazolo[1,5-a]pyridin-2-yl)-pyrido[4,3-d]pyrimidin-2-yl]-cyclohexane-1,2-diamine]
  IC50: 1000 to 50000 nM
